Reference: patent US5585105A, “Utilization of derivatives of 2,5-dihydroxyphenylcarboxylic acids, their homologs, and their salts in preparation of a cosmetic or dermatological composition with a depigmenting action” (L'Oreal, priority 1991, dated 1996)

What was measured:
fungal tyrosinase = experiment: in vitro tyrosinase activity inhibition test; type: biochemical; conditions: decrease in maximum dopachrome formed (OD 475 nm, plateau) vs without inhibitor; inhibitor 50 mol. % relative to tyrosine; pH 6.5, 25° C.
Text: According to this test, the quantity of dopachrome formed during the chain of reactions by which tyrosine is converted into melanins is monitored by visible spectrometry at 475 nm. These reactions are catalyzed in vitro by fungal tyrosinase in the presence of a reducing cosubstrate (for example L-dopa in a small quantity) to initiate the hydroxylation reaction of L-tyrosine into L-dopa. The L-dopa is then oxidized catalytically into dopaquinone and then into dopachrome, an intermediate formed prior to the nonenzymatic oxidation reactions that lead to formation of melanins.
The inhibitor concentrations are established at 50 mol. % relative to the tyrosine concentration in the reaction medium.
The effect of inhibition is expressed by the decrease in the maximum quantity of dopachrome formed (optical density value at 475 nm read from the plateau of the curve) relative to the quantity obtained in the absence of inhibitor.
A--0.1 M phosphate buffer, pH=6.5 (Tween 20, 1%)
B--Stock solution of L-tyrosine, 2×10^-3 M in A
C--Stock solution of L-dopa, 10^-4 M in A
D--Stock solution of fungal tyrosinase, 2400 units/ml, in A
E--Stock solution of inhibitor, 10^-2 M in A (solutions C and D must be prepared on the day of the experiment).
reference cell: 3 ml of A
homogenize and equilibrate at 25° C.
mix rapidly and observe kinetics by measuring absorbance at 475 nm as a function of time.

melanocyte = conditions: background statement; cited from earlier work

% change in maximum dopachrome vs no inhibitor (fungal tyrosinase) | Compound | irritation and cytotoxicity to the melanocyte (melanocyte)
-87% | COC(=O)Cc1cc(O)c(C)cc1O | –
-66% | Cc1cc(O)c(CC(=O)O)cc1O | –
-59% | Cc1c(O)cc(CC(=O)O)c(O)c1C | –
-64% | Cc1cc(O)c(CCC(=O)O)cc1O | –
-42% | O=C(O)CCc1cc(O)ccc1O | –

Compound | % change in maximum dopachrome vs no inhibitor (fungal tyrosinase) | irritation and cytotoxicity to the melanocyte (melanocyte)
Oc1ccc(O)cc1 [hydroquinone, reference compound] | -33% | particularly irritating and cytotoxic to the melanocyte
